{"source": "patent US7393812B2", "about": "“Methylidene mevalonates and their use as herbicides” (Dow AgroSciences LLC, priority 2004, dated 2008)", "test_in_all_cases": "Post-emergent evaluation", "type_in_all_cases": "in vivo", "conditions_in_all_cases": "after 2 weeks", "key": {"[1]": {"tested_on": "barnyardgrass (Echinochloa crusgalli, ECHCG)", "procedure": "(§1) Seeds of the desired test plant species were planted in Grace-Sierra MetroMix® 306 planting mixture, which typically has a pH of 6.0 to 6.8 and an organic matter content of about 30 percent, in plastic pots with a surface area of 64 square centimeters. When required to ensure good germination and healthy plants, a fungicide treatment and/or other chemical or physical treatment was applied. The plants were grown for 7-21 days in a greenhouse with an approximate 15 hr photoperiod which was maintained at about 23-29° C. during the day and 22-28° C. during the night. Nutrients and water were added on a regular basis and supplemental lighting was provided with overhead metal halide 1000-Watt lamps as necessary. The plants were employed for testing when they reached the first or second true leaf stage.\n(§2) A weighed amount, determined by the highest rate to be tested, of each test compound was placed in a 20 mL glass vial and was dissolved in 4 mL of a 97:3 v/v (volume/volume) mixture of acetone and dimethyl sulfoxide (DMSO) to obtain concentrated stock solutions. […] The concentrated stock solutions obtained were diluted with an aqueous mixture containing acetone, water, isopropyl alcohol, DMSO, Atplus 411F crop oil concentrate, and Triton X-155 surfactant in a 48.5:39:10:1.5:1.0:0.02 v/v ratio to obtain spray solutions of known concentration. The solutions containing the highest concentration to be tested were prepared by diluting 2 mL aliquots of the stock solution with 13 mL of the mixture and lower concentrations were prepared by serial dilution of the stock solution. Approximately 1.5 mL aliquots of each solution of known concentration were sprayed evenly onto each of the test plant pots using a DeVilbiss atomizer driven by compressed air pressure of 2 to 4 psi ([…]) to obtain thorough coverage of each plant. Control plants were sprayed in the same manner with the aqueous mixture. In this test an application rate of 1 ppm results in the application of approximately 1 g/Ha.\n(§3) The treated plants and control plants were placed in a greenhouse as described above and watered by sub-irrigation to prevent wash-off of the test compounds. […] Species abbreviations as described for Table I with the following additions: soybean (Glycine max, GLXMA), rape (Brassica napus, BRSNN), chickweed (Stellaria media, STEME), cocklebur (Xanthium strumarium XANST), lambsquarters (Chenopodium album, CHEAL), violet (Viola tricolor, VIOTR), bindweed (Polygonum convolvulus, POLCO), spurge (Euphorbia heterophylla, EPHHL), Canada thistle (Cirsium arvense, CIRAR), corn (Zea mays, ZEAMX), rice (Oryza sativa, ORYSA), wheat (Triticum aestivum, TRZAS), crabgrass (Digitaria sanguinalis, DIGSA), shattercane (Sorghum vulgare, SORVU) and yellow nutsedge (Cyperus esculentus, CYPES).\n(§4) By applying the well-accepted probit analysis as described by J. Berkson in Journal of the American Statistical […], 48, 565 (1953) and by D. Finney in “Probit Analysis” Cambridge University Press (1952), similar data can be used to calculate GR80 values, which are defined as growth reduction factors that correspond to the effective dose of herbicide required to kill or control 80 percent of a target plant. Species abbreviations are as previously defined."}, "[2]": {"tested_on": "morningglory (Ipomoea hederacea, IPOHE)", "procedure": "as §1, §2, §3, §4"}, "[3]": {"tested_on": "velvetleaf (Abutilon theophrasti, ABUTH)", "procedure": "as §1, §2, §3, §4"}}, "data": [{"molecule": "C=C(CO)C(C)(O)CC(=O)O", "note": "(stereo not drawn) [methylidene mevalonate, 3-hydroxy-4-(hydroxymethyl)-3-methylpent-4-enoic acid]", "values": [{"measurement": "Postemergent % Control", "setting": "[1]; spray concentration 125 ppm", "result": 40, "unit": "%"}, {"measurement": "Postemergent % Control", "setting": "[1]; spray concentration 250 ppm", "result": 85, "unit": "%"}, {"measurement": "Postemergent % Control", "setting": "[1]; spray concentration 500 ppm", "result": 95, "unit": "%"}, {"measurement": "Postemergent % Control", "setting": "[1]; spray concentration 1000 ppm", "result": 95, "unit": "%"}, {"measurement": "Postemergent % Control", "setting": "[1]; spray concentration 2000 ppm", "result": 100, "unit": "%"}, {"measurement": "Postemergent % Control", "setting": "[2]; spray concentration 125 ppm", "result": 40, "unit": "%"}, {"measurement": "Postemergent % Control", "setting": "[2]; spray concentration 250 ppm", "result": 50, "unit": "%"}, {"measurement": "Postemergent % Control", "setting": "[2]; spray concentration 500 ppm", "result": 70, "unit": "%"}, {"measurement": "Postemergent % Control", "setting": "[2]; spray concentration 1000 ppm", "result": 80, "unit": "%"}, {"measurement": "Postemergent % Control", "setting": "[2]; spray concentration 2000 ppm", "result": 80, "unit": "%"}, {"measurement": "Postemergent % Control", "setting": "[3]; spray concentration 125 ppm", "result": 0, "unit": "%"}, {"measurement": "Postemergent % Control", "setting": "[3]; spray concentration 250 ppm", "result": 5, "unit": "%"}, {"measurement": "Postemergent % Control", "setting": "[3]; spray concentration 500 ppm", "result": 20, "unit": "%"}, {"measurement": "Postemergent % Control", "setting": "[3]; spray concentration 1000 ppm", "result": 50, "unit": "%"}, {"measurement": "Postemergent % Control", "setting": "[3]; spray concentration 2000 ppm", "result": 60, "unit": "%"}]}]}
